Laboratory results: US20140051762A1, “POLYCATIONIC COMPOUNDS AND USES THEREOF” (priority 2004, published 2014)
Several values for one entry are separate records, joined by “and”; a condition that tells them apart may be missing. Equal entries are not always repeated.

Each molecule was assayed on heparin (assay: effect on coagulation time and heparin efficacy). Details: Heparin 1 mg/L, Compound 26 0 mg/L.
Description: The following example illustrates the effect of a polycationic compound of the present invention on coagulation time. The anti-heparin assay as described herein was used. The assay contained either 1 mg/L, 2 mg/L or 4 mg/I of heparin and increasing amounts of Compound 26 was added.

Row | Molecule | Coagulation Time [s] | Heparin Efficacy
1 | heparin [reference compound] | 50.8 | 1

Same assay, conditions: Heparin 2 mg/L, Compound 26 0 mg/L

Row | Molecule | Coagulation Time [s] | Heparin Efficacy
2 | heparin [reference compound] | 110.8 | 1

Same assay, conditions: Heparin 4 mg/L, Compound 26 0 mg/L

Row | Molecule | Coagulation Time [s] | Heparin Efficacy
3 | heparin [reference compound] | 214.9 | 1

These molecules were tested on Factor Xa (assay: anti-heparin assay, % Factor Xa inhibition at single concentration (chromogenic substrate S-2765)). Details: Single concentration (10 ug/ml).
Type: biochemical
Description: The following example illustrates the heparin antagonistic effects of polycationic compounds of the present invention. To determine the anti-heparin activity of the polycationic compounds an assay measuring the percent inhibition using a fixed concentration of polycationic compound or concentrations of polycationic compounds causing lysis of 50% of human red blood cells were conducted.
10 IU of anti-thrombin was dissolved in 10 ml of buffer, resulting in a 1 IU/ml stock solution (250×) of the anti-thrombin. The 1 IU/ml (250×) stock solution of anti-thrombin and a 336 mM stock solution of NaCl were diluted into a total volume of 50 μl buffer so that the final anti-thrombin concentration was 0.004 IU/sample well and the NaCl was 150 mM/sample well. 1 μl of the compound to be tested, final concentration 10 μg/ml (corresponding to 0.5 logarithmic antagonist dilution) is added to the sample well. The samples are mixed and allowed to incubate at room temperature for 20 minutes. 50 μl of factor Xa dissolved in buffer is added to the sample well to a final concentration of 0.14 knat/well (2 μl of the 7.1 kna/1 ml stock solution to a final sample well buffer volume of 100 μl). The samples were mixed and further incubated at room temperature for 10 minutes. 10 μl of a 4 mM stock solution of the substrate S-2765 was added to each sample well for a final concentration of 0.4 mM in each sample well. The samples were mixed and hydrolyses of the chromogenic substrate Z-D-Arg-Gly-Arg-pNA (S-2765), thus liberating the chromophoric group pNA (p-nitroaniline), was monitored at 405 nm. The samples were mixed every 30 seconds to maintain a uniform mixture. ThermoLabsystems Multiskan Spectrum spectrophotometer was used to measure the absorbance spectrums. The increase in absorbance was proportional to the enzyme (factor Xa) activity. The % inhibition of factor Xa was determined using a standard curve.

Row | Molecule | % FactorXa Inhibition
4 | CC(C)(C)c1cc(NC(=O)CCCCN)c(SCCN)c(NC(=O)c2cccc(C(=O)Nc3cc(C(C)(C)C)cc(NC(=O)CCCCN)c3SCCN)c2)c1 [Compound 11] | 1.903%
5 | CC(C)(C)c1cc(NC(=O)c2cccc(C(=O)Nc3cc(C(C)(C)C)cc(NC(=O)[C@H](N)Cc4ccccc4)c3SCCN)c2)c(SCCN)c(NC(=O)[C@H](N)Cc2ccccc2)c1 [Compound 8] | 7.41%
6 | COC(=O)c1cc(NC(=O)c2cc(NC(=O)c3cc(NC(=O)c4cc(N)ccc4OC)ccc3OCCN)ccc2OC)ccc1OCCN [Compound 52] | 45.48%
7 | CC(C)(C)c1cc(NC(=O)CCCCNC(=N)N)c(SCCNC(=N)N)c(NC(=O)c2cccc(C(=O)Nc3cc(C(C)(C)C)cc(NC(=O)CCCCNC(=N)N)c3SCCNC(=N)N)c2)c1 [Compound 10] | 20.8%
8 | NCCc1cc(Br)cc(C#Cc2cccc(C#Cc3cc(Br)cc(CCN)c3)c2)c1 [Compound 55] | 46.5%
9 | CC(C)(C)c1cc(NC(=O)c2cc(OCCN)cc(C(=O)Nc3cc(C(C)(C)C)cc(NC(=O)[C@H](N)Cc4ccccc4)c3SCCN)c2)c(SCCN)c(NC(=O)[C@H](N)Cc2ccccc2)c1 [Compound 5] | 39.77%
10 | CC(C)(C)c1cc(N)c(SCCNC2=NCCN2)c(NC(=O)c2cccc(C(=O)Nc3cc(C(C)(C)C)cc(N)c3SCCNC3=NCCN3)c2)c1 [Compound 21] | 1.496%
11 | COC(=O)c1cc(NC(=O)c2cc(NC(=O)c3cc(NC(=O)c4cc(NC(=O)c5cc(NC(=O)c6cc(N)ccc6OC)ccc5OCCN)ccc4OC)ccc3OCCN)ccc2OC)ccc1OCCN [Compound 53] | 43.03%
12 | CC(C)(C)c1cc(N)c(SCCNC(=N)N)c(NC(=O)c2cc(C(=O)Nc3cc(C(C)(C)C)cc(N)c3SCCNC(=N)N)c(OCCNC(=N)N)cc2OCCNC(=N)N)c1 [Compound 16] | 30.39%
13 | CC(C)(C)c1cc(N)c(SCCNC(=N)N)c(NC(=O)c2cc(C(=O)Nc3cc(C(C)(C)C)cc(N)c3SCCNC(=N)N)c(OCCN)cc2OCCN)c1 [Compound 17] | 15.02%
14 | CC(C)(C)c1cc(N)c(SCCN)c(NC(=O)c2cccc(C(=O)Nc3cc(C(C)(C)C)cc(N)c3SCCN)c2)c1 [Compound 3] | 2.855%
15 | N=C(N)NCCCCC(=O)Nc1cccc(NC(=O)c2cc(C(=O)Nc3cccc(NC(=O)NCCCNC(=N)N)c3SCCN)c(OCCN)cc2OCCN)c1SCCN [Compound 28] | 44.3%
16 | CN(C)C(NCCSc1c(N)cc(C(C)(C)C)cc1NC(=O)c1cccc(C(=O)Nc2cc(C(C)(C)C)cc(N)c2SCCNC(N(C)C)=[N+](C)C)c1)=[N+](C)C [Compound 22] | 1.292%
17 | CC(C)(C)c1cc(NC(=O)CCCN)c(SCCN)c(NC(=O)c2cccc(C(=O)Nc3cc(C(C)(C)C)cc(NC(=O)CCCN)c3SCCN)c2)c1 [Compound 6] | 2.583%
18 | CC(C)(C)c1cc(N)c(SCCNC(=N)N)c(NC(=O)c2cc(OCCNC(=N)N)cc(C(=O)Nc3cc(C(C)(C)C)cc(N)c3SCCNC(=N)N)c2)c1 [Compound 14] | 40.99%
19 | CC(=O)Nc1cc(C(C)(C)C)cc(NC(=O)c2cccc(C(=O)Nc3cc(C(C)(C)C)cc(NC(C)=O)c3SCCN)c2)c1SCCN [Compound 23] | 1.224%
20 | COC(=O)c1cc(OCCN)ccc1NC(=O)c1cc(OCCC(C)C)ccc1NC(=O)c1cc(OCCN)ccc1C(O)O [Compound 54] | 19.99%
21 | CC(=O)Nc1cc(C(C)(C)C)cc(NC(=O)c2cc(OCCN)cc(C(=O)Nc3cc(C(C)(C)C)cc(NC(C)=O)c3SCCN)c2)c1SCCN [Compound 24] | 1.835%
22 | CC(C)(C)c1cc(NC(=O)c2cccc(C(=O)Nc3cc(C(C)(C)C)cc(NC(=O)c4cc(N)ccc4OCCCCCN)c3SCCN)c2)c(SCCN)c(NC(=O)c2cc(N)ccc2OCCCCCN)c1 [Compound 13] | 36.84%
23 | CC(C)(C)c1cc(N)c(SCCNC(=N)N)c(NC(=O)c2cccc(C(=O)Nc3cc(C(C)(C)C)cc(N)c3SCCNC(=N)N)c2)c1 [Compound 9] | 10.88% and 16.25%
24 | CC(C)(C)c1cc(NC(=O)CCCCNC(=N)N)c(SCCN)c(NC(=O)c2cccc(C(=O)Nc3cc(C(C)(C)C)cc(NC(=O)CCCCNC(=N)N)c3SCCN)c2)c1 [Compound 12] | 9.381%
25 | CC(=O)Nc1cc(C(C)(C)C)cc(NC(=O)c2cccc(C(=O)Nc3cc(C(C)(C)C)cc(NC(C)=O)c3SCCNC(=N)N)c2)c1SCCNC(=N)N [Compound 20] | 7.852%
26 | CC(C)OC(=O)c1cc(NC(=O)c2cc(OCCN)cc(C(=O)Nc3cc(C(=O)OC(C)C)cc(NC(=O)[C@H](N)CCCNC(=N)N)c3SCCN)c2)c(SCCN)c(NC(=O)[C@H](N)CCCNC(=N)N)c1 [Compound 19] | 59.82%
27 | CC(C)(C)c1cc(N)c(SCCN)c(NC(=O)c2cc(C(=O)Nc3cc(C(C)(C)C)cc(N)c3SCCN)ncn2)c1 [Compound 33] | 32.02%
28 | CC(C)(C)c1cc(N)c(SCCN)c(NC(=O)c2cc(C(=O)Nc3cc(C(C)(C)C)cc(N)c3SCCN)c(OCCN)cc2OCCN)c1 [Compound 15] | 5.71%
29 | CC(C)(C)c1cc(NC(=N)N)c(SCCN)c(NC(=O)c2cc(C(=O)Nc3cc(C(C)(C)C)cc(NC(=N)N)c3SCCN)c(OCCN)cc2OCCN)c1 [Compound 18] | 13.26%
30 | Magainin [reference compound] | 4.419%
31 | CC(C)(C)c1cc(NC(=O)c2cccc(C(=O)Nc3cc(C(C)(C)C)cc(NC(=O)[C@H](N)CCCCN)c3SCCN)c2)c(SCCN)c(NC(=O)[C@H](N)CCCCN)c1 [Compound 4] | 0.9517%

These molecules were tested on FGF2-induced angiogenesis in the CAM model (assay: FGF2-induced angiogenesis in the chick chorioallantoic membrane (CAM) model). Details: Table 2; FgF alone 1.0 ug/ml, n = 8.
Type: in vivo, chick embryo
Description: The following example illustrates the anti-angiogenic effect of exemplary polycationic compounds of the present invention. Ten-day old embryos were purchased from Spafas, Inc. (Preston, Conn.) and were incubated at 37° C. with 55% relative humidity. In the dark with the help of a candling lamp, a small hole was punctured in the shell concealing the air sac with a hypodermic needle. A second hole was punctured in the shell on the broadside of the egg directly over an avascular portion of the embryonic membrane, as observed during candling. A false air sac was created beneath the second hole by the application of negative pressure to the first hole, which caused the chorioallantoic membrane (CAM) to separate from the shell. A window, approximately 1.0 cm^2, was cut in the shell over the dropped CAM with the use of a small crafts grinding wheel (Dremel, Division of Emerson Electric Company Racine, Wis.) which allowed direct access to the underlying CAM. Filter disks of #1 filter paper (Whatman International, United Kingdom) were soaked in 3 mg/mL cortisone acetate (Sigma, St. Louis, Mo.) in a solution of 95% ethanol and water and subsequently air dried under sterile conditions. FGF2 (Life Technologies, Gaithersburg, Md.) was used to grow vessels on the CAMs of 10 day old chick embryos. Sterile filter disks adsorbed with FGF2 dissolved in PBS at 1μg/mL were placed on growing CAMs. […] At 24 h, test compounds or control vehicle was added directly to CAM topically.
CAM tissue directly beneath FGF2-saturated filter disk was resected from embryos treated 48 hours prior with test compound or control. Tissues were washed three times with PBS. Sections were placed in a 35-mm petri dish (Nalgen Nunc, Rochester, N.Y.) and examined under a SV6 stereomicroscope (Karl Zeiss, Thornwood, N.Y.) at 50× magnification. Digital images of CAM sections adjacent to filters were collected using a 3-CCD color video camera system (Toshiba America, New York, N.Y.) and analyzed using Image-Pro Plus software (Media Cybernetics, Silver Spring, Md.). Table 4 contains the number of vessel branch points contained in a circular region equal to the area of a filter disk counted for each section.
CAM tissue directly beneath FGF2-saturated filter disk was resected from embryos treated 48 h prior with compound or control. Tissues were washed three times with PBS. Sections were placed in a 35-mm petri dish (Nalge Nunc, Rochester, N.Y.) and examined under a SV6 stereomicroscope (Karl Zeiss, Thornwood, N.Y.) at 50× magnification. Digital images of CAM sections adjacent to filters were collected using a 3-CCD color video camera system (Toshiba America, New York, N.Y.) and analyzed with the Image-Pro Plus software (Media Cybernetics, Silver Spring, Md.).

Row | Molecule | Branch pts ± SEM
32 | fibroblast growth factor 2 [FgF2, reference compound] | 155 ± 10

Same assay, conditions: Table 3; 1.0 ug + FGF2 (1 ug)

Row | Molecule | % inhibition ± SEM [%] | Branch pts ± SEM
33 | CC(C)(C)c1cc(N)c(SCCN)c(NC(=O)c2cc(C(=O)Nc3cc(C(C)(C)C)cc(N)c3SCCN)ncn2)c1 [Compound 33] | 17 ± 18 | 160 ± 18

Same assay, conditions: Table 3; FgF2 alone 1.0 ug/ml

Row | Molecule | Branch pts ± SEM
34 | fibroblast growth factor 2 [FgF2, reference compound] | 177 ± 10
